How the values were obtained:
[1] = molar heat capacity at saturation pressure; conditions: Liquid, Small (less than 1 g) adiabatic calorimetry
[2] = Molar enthalpy of transition or fusion; conditions: Crystal 1; Adiabatic calorimetry
[3] = molar heat capacity at constant pressure; conditions: 101.33 kPa, Vacuum adiabatic calorimetry
[4] = for vapor or sublimation pressure / mass density: Liquid; for mass density: Vibrating tube method

C1=Cc2ccccc2CC1 [1,2-dihydronaphthalene]
Conditions	Triple point temperature [K]	mass density [kg/m3]	molar heat capacity [J/K/mol]
[1], 410.93 K	–	–	257.02
[1], 426.18 K	–	–	263.43
[1], 438.72 K	–	–	268.69
[4], 323.15 K	–	971.8	–
[4], 348.15 K	–	951.1	–
[4], 373.15 K	–	930.3	–
[4], 398.15 K	–	909.7	–
[4], 423.15 K	–	889.1	–
[4], 448.15 K	–	867.8	–
[4], 473.15 K	–	846.1	–
[4], Crystal 1, Adiabatic calorimetry	264.38	–	–

Conditions	Molar enthalpy of transition or fusion [kcal/mol]
[2]	2.5198

Conditions	molar heat capacity at constant pressure [J/K/mol]	vapor or sublimation pressure [kPa]
[3], 5 K, Crystal 3	0.28	–
[3], 10 K, Crystal 3	2.69	–
[3], 20 K, Crystal 3	13.26	–
[3], 30 K, Crystal 3	24.12	–
[3], 40 K, Crystal 3	33.18	–
[3], 50 K, Crystal 3	40.87	–
[3], 60 K, Crystal 3	47.15	–
[3], 70 K, Crystal 3	52.76	–
[3], 80 K, Crystal 3	57.88	–
[3], 90 K, Crystal 3	62.79	–
[3], 100 K, Crystal 3	67.58	–
[3], 120 K, Crystal 3	77.47	–
[3], 140 K, Crystal 3	90.29	–
[3], 146 K, Crystal 2	95.59	–
[3], 146 K, Crystal 3	95.33	–
[3], 160 K, Crystal 2	104.39	–
[3], 180 K, Crystal 2	115.29	–
[3], 194.4 K, Crystal 1	126.5	–
[3], 194.4 K, Crystal 2	124.59	–
[3], 200 K, Crystal 1	129.36	–
[3], 220 K, Crystal 1	141.06	–
[3], 240 K, Crystal 1	155.01	–
[3], 250 K, Liquid	191.22	–
[3], 260 K, Crystal 1	171.24	–
[3], 260 K, Liquid	195.03	–
[3], 264.38 K, Crystal 1	175.09	–
[3], 264.38 K, Liquid	196.72	–
[3], 280 K, Liquid	202.59	–
[3], 298.15 K, Liquid	209.64	–
[3], 300 K, Liquid	210.37	–
[3], 320 K, Liquid	218.52	–
[3], 340 K, Liquid	226.88	–
[3], 360 K, Liquid	235.35	–
[3], 380 K, Liquid	243.89	–
[3], 400 K, Liquid	252.39	–
[3], 420 K, Liquid	260.86	–
[3], 440 K, Liquid	269.35	–
[3], 460 K, Liquid	277.87	–
[3], 480 K, Liquid	286.36	–
[3], 500 K, Liquid	294.85	–
[4], 290 K, Inclined piston gauge	–	0.0253
[4], 299.97 K, Inclined piston gauge	–	0.0534
[4], 310 K, Inclined piston gauge	–	0.1078
[4], 319.99 K, Inclined piston gauge	–	0.2047
[4], 329.98 K, Inclined piston gauge	–	0.3717
[4], 339.99 K, Inclined piston gauge	–	0.6472
[4], 349.98 K, Inclined piston gauge	–	1.086
[4], 359.98 K, Inclined piston gauge	–	1.76
[4], 362.71 K, Twin ebulliometer	–	1.998
[4], 364.97 K, Inclined piston gauge	–	2.214
[4], 369.18 K, Twin ebulliometer	–	2.671
[4], 369.98 K, Inclined piston gauge	–	2.766
[4], 378.73 K, Twin ebulliometer	–	4.013
[4], 385.76 K, Twin ebulliometer	–	5.332
[4], 396.37 K, Twin ebulliometer	–	7.999
[4], 404.33 K, Twin ebulliometer	–	10.67
[4], 410.79 K, Twin ebulliometer	–	13.33
[4], 417.49 K, Twin ebulliometer	–	16.67
[4], 423.06 K, Twin ebulliometer	–	19.93
[4], 430.39 K, Twin ebulliometer	–	25.02
[4], 437.8 K, Twin ebulliometer	–	31.18
[4], 445.24 K, Twin ebulliometer	–	38.56
[4], 452.74 K, Twin ebulliometer	–	47.37
[4], 460.3 K, Twin ebulliometer	–	57.81
[4], 467.91 K, Twin ebulliometer	–	70.1
[4], 475.59 K, Twin ebulliometer	–	84.53
[4], 483.32 K, Twin ebulliometer	–	101.33
[4], 491.1 K, Twin ebulliometer	–	120.79
[4], 498.94 K, Twin ebulliometer	–	143.26
[4], 506.84 K, Twin ebulliometer	–	169.03

From the NIST ThermoML archive (doi:10.1016/j.jct.2008.01.009)
